From US20040166509A1, “Detecting hormonally active compounds” (priority 2002, published 2004)

Assays:
[1] = tested on: hepatic mRNA of adult male SHMs; test: SHM cDNA macroarray (30 genes): hepatic gene expression profiles of exposed fish; assay type: in vivo, sheepshead minnow (SHM)
[2] = tested on: estrogen receptors alpha, beta, and gamma, and Vtg 1 mRNA; test: Real-time PCR of ER and Vtg 1 mRNA in LMB liver; assay type: in vivo, largemouth bass (LMB); settings: male LMB liver
Description: Experimental Design and Sample Collection: Adult male LMB were purchased from American Sports Fish Hatchery (Montgomery, Ala.) and maintained in fiberglass tanks as previously described (Larkin et al., Comp. Biochem. Physiol. B. Biochem. Mol. Biol. 133:543-557, 2002; Larkin et al., Marine Environ. Res. 54:395-399, 2002; and Larkin et al., Comparative Biochemistry and Physiology 133:543-557, 2002). Array technology as a tool to monitor exposure of fish to xenoestrogens. Marine Environ. Res., 2002; Bowman et al., Mol. Cell. Endocrinol. 196:67-77, 2002). Each fish was injected IP with either 50 mg/kg 4-NP (Fluka, St. Louis, Mo. # 74430), the combination of 50 mg/kg 4-NP and 1.0 mg/kg ICI 182,780 (Tocris Cookson), or vehicle, which consisted of ethanol and DMSO (Sigma, St. Louis, Mo. #5879). Each dose was dissolved in 1 ml of ethanol and then diluted to the appropriate concentration with DMSO. The fish were euthanized by submersion in a water bath containing 50-100 ppm […] 48 hours post injection and sacrificed by a sharp blow to the head followed by cervical transaction. The livers were excised and immediately flash frozen in liquid nitrogen. The frozen tissues were stored at −80° C. until RNA was isolated.
RNA Isolation: Isolation of total RNA from liver tissue was performed with the RNA Stat-60 reagent (Tel-test). Briefly, 30 mg-50 mg of tissue stored in RNA later was homogenized in 0.9 mls STAT 60, choloroform was added, and the mixture was centrifuged at 12,000 g for 15 minutes at 4° C. The extraction process was repeated and the pooled RNA was added to 500 μl isopropanol and allowed to precipitate at −20° C. for at least one hour. Following centrifugation at 12,000 g for 50 minutes, the pellet was washed with 70% ethanol, air dried and resuspended in an appropriate volume (50 μl-120 μl of RNA secure. The samples were treated with RNA secure (Ambion, Austin Tex. #7010) to inactivate contaminating RNases. All isolated RNA was treated with DNase solution (Ambion, Austin, Tex. #1906) following the manufacture's protocol. For all RNA samples, the quantity and quality of total RNA was assessed by spectrophotometric readings at 260 nm and by electrophoresis through a 1% formaldahyde agarose gel stained with ethidium bromide.
Real-Time PCR: Real time PCR was performed using reagents and a 5700 thermocycler purchased from Applied Biosystems (ABI, Foster City, Calif.). The nucleotide sequences of the primers for the ER subtypes and Vtg 1 are as follows: 5′, […] (SEQ ID NO:563) AND 5′[…] (SEQ ID NO:564). Probes and primers for the ER subtypes and Vtg 1 are described in Bowman et al., Ecotoxicology 8:399-416, 1999; and Bowman et al., Mol. Cell Endocrinol. 196:67-77, 2002. Each real time PCR reaction consisted of 0.01-0.2 μg of reverse transcribed total RNA from liver tissue, 1× universal Taqman master mix (ABI, Foster City, Calif.), and primers and probes in a 25 μl reaction. […] Statistical differences between the treatments were determined by one way analysis of variance with Dunnets post-hoc analysis.
Measurement of ER and Vtg 1 mRNA by real-time PCR: Real-time PCR is a sensitive assay that can be used to quantitate expression levels of genes. Using this technology, assays were designed to quantitate the expression of 4 genes, estrogen receptors alpha, beta, and gamma, and Vtg 1 in LMB following exposure to 4-NP and 4-NP/ICI 182,780. […]

[3] = tested on: hepatic RNA of LMB; test: LMB gene array (132 genes): hepatic gene expression after IP injection; assay type: in vivo, largemouth bass (LMB); settings: male LMB liver, two-fold cutoff vs control; for LMB50-1 (clone 50-1) expression / LMB67-1 signal peptidase, endopeptidase expression: 48 h after single IP 4-NP 50 mg/kg
[4] = tested on: LMB genes (ER alpha, ER gamma, StAR); design: species or system largemouth bass (LMB); settings: Table II, test not stated
[5] = 48 h after single IP injection, 4-NP 50 mg/kg alone or with ICI 182,780 1.0 mg/kg, not significant
[6] = 48 h after single IP dose: E2 2.5 mg/kg or 4-NP 50 mg/kg
[7] = 48 h after single IP dose: E2 2.5 mg/kg or 4-NP 50 mg/kg, listed as NP
[8] = 48 h after single IP dose: E2 2.5 mg/kg, 4-NP 50 mg/kg or p,p′-DDE 100 mg/kg
[9] = 48 h after single IP dose: E2 2.5 mg/kg, 4-NP 50 mg/kg or p,p′-DDE 100 mg/kg, listed as NP

## CCCCCCCCCc1ccc(O)cc1 [4-NP, para-nonylphenol]
[1]; Estrogen receptor alpha (clone ID not given)
  Regulation: up-reg E2; EE2,
[1]; clone SHM2-1: vitellogenin alpha (2)
  Regulation: up-reg E2; EE2,
[1]; clone SHM11: Transferrin
  Regulation: dn-reg E2; EE2,
[1]; clone SHM41: Ubiquitin-conjugating enzyme 9
  Regulation: up-reg NP
[1]; clone SHM72-3: Coagulation Factor XI
  Regulation: up-reg E2; EE2,
[1]; clone SHM76-2: Alphal-microglobulin/bikunin precursor (AMBP) protein
  Regulation: d-reg E2; EE2,
[2]; 48 h after single IP 4-NP 50 mg/kg, p<0.05
  Vtg 1 message levels increase over controls: approximately 40 fold
[2]; 48 h after single IP injection, 4-NP 50 mg/kg alone (p<0.05) or with ICI 182,780 1.0 mg/kg (p<0.08)
  ER α mRNA increase over controls: 80 fold
[2]; [5]
  ER β mRNA decrease vs controls: approximately 1.3 fold
  ER γ mRNA decrease vs controls: ~2.6 fold
[3]
  LMB50-1 (clone 50-1) expression: down-regulated
  LMB67-1 signal peptidase, endopeptidase expression: up-regulated
[3]; listed as NP
  LMB50-1 (clone 50-1) expression: Down reg NP;
  LMB67-1 signal peptidase, endopeptidase expression: Up-reg NP
[3]; [6]
  LMB5 vitellogenin-2A expression: Up reg E2;
  LMB92-1 (unidentified clone 92-1) expression: up-regulated
  LMB94-1 transferrin expression: down-regulated
  LMB112-1 cathepsin (Aspartic protease) expression: up-regulated
  LMB141 vitellogenin-3 expression: up reg E2; NP,
  four Vtg genes expression: up-regulated (only genes that exhibit a two-fold or greater change in expression were considered to be differentially regulated)
[3]; [7]
  LMB92-1 (unidentified clone 92-1) expression: up-reg E2;
  LMB94-1 transferrin expression: Down-reg.
[3]; [8]
  LMB83 vitellogenin-2 (Vtg 2) expression: up-reg E2;
  LMB87 vitellogenin-1 (Vtg 1) expression: up-reg E2;
  LMB97 choriogenin-3 expression: up-regulated
  LMB108-1 choriogenin-2 expression: up-regulated
[3]; [9]
  LMB97 choriogenin-3 expression: Up-reg E2;
  LMB108-1 choriogenin-2 expression: Up-reg E2; NP;
[4]
  LMB_ER-ALPHA ESTROGEN RECEPTOR ALPHA differentially expressed by: up-reg E2;
